pIC50: −log10 of the molar value. Values joined by “and” are separate entries in the source; they are usually repeats but may differ in a detail not shown here. Equal entries are not always repeated.
Key:
[1] = test system: generation of hydrogen peroxide (H2O2) by iron; assay: H2O2 Inhibition Assay; format: biochemical
Experimental: Assay 1. H2O2 Inhibition Assay.
(§1) This fluoresence assay evaluates the ability of a test compound to inhibit the generation of hydrogen peroxide (H2O2) by iron in the presence of a reducing substrate such as ascorbic acid. In the assay, iron in the form of FeCl3 or copper is allowed to react with ascorbic acid by incubating for 1 hr at 37° C. in the presence of the fluorescing compound DCF and horseradish peroxidase. H2O2 generated by the system is assessed by measuring the specific fluorescence profile at the excitation and emission wavelengths of 485 and 530 nm respectively, in the presence of increasing concentrations of test compound. Test compounds are ranked according to their capacity to inhibit H2O2 generated by the system where lower values reflect greater ability to inhibit H2O2 production.

[2] = test system: M17 human neuroblastoma cells; assay: Metal Uptake Assay (metal transport); format: cell-based; conditions: 10 μM Cu + 10 μM compound, 5 hours
Experimental: Assay 3. Metal Uptake Assay
M17 human neuroblastoma cells are plated out on 6 well plates and left overnight. Enough cells are added to give approximately 70% confluent the following day of the experiment. Test compounds are added to media and mixed with equi-molar amounts of CuCl2 solution. A=10 μM Cu+10 μM MPAC; B=10 μM Cu+10 μM MPAC.
Cells are incubated in 1 ml of media/MPAC/Cu mix for 5 hours at 37° C. At the end of the incubation the media is removed with a vacuum aspirator and 1 ml of PBS added to dislodge the cells. Cells are then put into Eppendorf tubes and pelleted. The PBS is removed and the remaining cell pellets are frozen at −20 C.
The cell pellets are prepared as follows:
Received cell pellets of similar levels in 1.5 ml microfuge tubes. Added 50 μl of concentrated Nitric Acid (Aristar, BDH) to each cell pellet and allowed them to digest over night. Heated the samples for 20 min at 90° C. to complete the digestion. The volume of each sample was reduced to ˜45 ul after digestion. Added 1 ml of the 1% Nitric Acid diluent to each sample. (referred to as the “preparation solution” samples).
Measurements were made using a Varian UltraMass ICPMS instrument under operating conditions suitable for routine multi-element analysis.
The instrument was calibrated using Blank, 10, 50 and 100 ppb of a certified multi-element ICPMS standard solution (ICP-MS—CAI2-1, Accustandard) for Fe, Cu and Zn in 1% nitric acid. Used an certified internal standard solution containing 100 ppb Yttrium (Y 89) as an internal control (ICP-MS—IS-MIX1-1, Accustandard).

Fe-DA = assay: H2O2 assay, Fe-DA (% cf. Fe 0.4 μM/DA 50 μM); format: biochemical; conditions: Fe 0.4 μM/DA 50 μM
Experimental: as §1

M17 = assay: Cytotox (% viable), cells marked M17; format: cell-based, human; conditions: repeat values given
Mouse Plasma Conc. = format: in vivo; conditions: given as 'Up to'
Neuronal cortical cells = assay: Cytotox (% viable); Primary Neuronal Cells Neurotoxicity Assay; format: cell-based, mouse; conditions: cell type not given, repeat values given
Experimental: Assay 2 (a). Primary Neuronal Cells Neurotoxicity Assays
Cortical cultures were prepared as previously described (White et al., 1998). Embryonic day 14 BL6Jx129sv mouse cortices were removed, dissected free of meninges and dissociated in 0.025% (wt/vol) trypsin. Dissociated cells were plated in 48 well culture plates at a density of 2×10^6 cells/mL in MEM with 25% (vol/vol) FCS and 5% (vol/vol) HS and incubated at 37° C., 2 hrs. Media was then replaced with Neurobasal media (Invitrogen Life Technologies) and B27 supplements (Invitrogen Life Technologies). Cultures were maintained at 37° C. in 5% CO2. Prior to experimentation, the culture medium was replaced with Neurobasal media and B27 minus antioxidants (Invitrogen Life Technologies).
Neuronal cortical cells were cultured for five days as per Assay 2 in NB media and B27 supplement.
On day six the test compounds were added to the neuronal cell cultures in NB media and B27 supplement minus antioxidants.
Test compounds were dissolved in 100% DMSO to a concentration of 2.5 mM (10 mM if excess compound was weighed out per vial—then diluted to 2.5 mM). 2.5 mM stock solution was serially diluted 1 in 10 to give working solutions of 250 uM, 25 uM, 2.5 uM. Test compounds were not added directly to cells, instead they were added to a 48 well ‘Drug Plate’ as comprised below: • Preparation of “Drug Plate”:
Well 1: 576 ul NB+B27 (no antioxidant)*+24 ul 2.5 uM test compound
Well 2: 576 ul NB+B27 (no antioxidant)+24 μl 25 uM test compound
Well 3: 576 ul NB+B27 (no antioxidant)+24 ul 250 uM test compound
Well 4: 576 ul NB+B27 (no antioxidant)+24 ul 2.5 uM test compound
Well 5: 576 ul NB+B27 (no antioxidant)+24 ul 25 uM test compound
Well 6: 576 ul NB+B27 (no antioxidant)+24 ul 250 uM test compound
Well 7: 576 ul NB+B27 (no antioxidant)+24 ul test compound diluent**
Well 8: 600 ul NB+B27 (no antioxidant)
The Drug Plate was incubated at 37° C. for 15 mins. 200 ul of each well was added in triplicate to the corresponding cell plate. The cell plate was incubated at 37° C., for 4 days, (2 compounds are tested on each plate of cells).
*NB media and B27 (no antioxidants),
**PBT diluent 10% DMSO in NB+1327 (no antioxidants)
On completion of the assay, 1/10 volume MTS was added per well of plate (ie 25 ul/250 ul). The plates were incubated at 37° C. for 2 hrs, and then absorbance was read at 560 nm.

[3] = test system: MPTP induced cell death in the SN; assay: Parkinson's disease in vivo: MPTP model; set-up: species or system mouse; conditions: MPTP mice
Text: Parkinson's Disease In Vivo Technique: MPTP
MPTP (1-methyl 4-phenyl 1,2,3,6-tetrahydropyridine) is a chemical that is related to the opioid analgesic drugs. MPTP causes Parkinsonian side-effects. This occurs when MPTP is metabolized into MPP+, which kills neurons in a part of the brain called the substantia nigra. MPP+ interferes with mitochondria metabolism which leads to cell death and causes the build up of free radicals, toxic molecules that contribute further to cell destruction. MPTP has abilities to effect neuronal death in dopaminergic cells. Such effects lead to gross depletion of dopaminergic neurons which has severe implications on cortical control of complex movements.
General Experimental Design
Determining that MPTP Causes Continued Cell Death
Control (non tg) and transgenic mice receive five intraperitoneal injections of MPTP-HCl (23 gauge needle, 20 mg\kg of free base; Sigma, St. Louis, Mo., USA) dissolved in sterile 0.9% saline at 2-h interval in 1 day. Control animals receive five intraperitoneal injections of 0.9% saline. […] 20 C57BL6, 10 control and 10 hA53T tg are used to establish the precise dose of toxin at 2 weeks. Animals are allowed to recover for 1 week, 2 weeks, 1 month, 12, months and 18 months. The animals are killed and the brains removed for histological (stereological) and biochemical analysis.
Determining Whether Test Drug Reduces MPTP Induced Cell Death
Animals are treated as described above. They are treated with test drug 2 days after MPTP injection until death. Test drug is given by oral gavage at a daily dosage of 30 mg/kg. The time of killing the animals is dependant on the analysis of Experiment 1, normally one month or less.
Drugs are administered by oral gavage, at a daily dosage of 30 mg/kg.
Mice are assessed at prior to killing the mice for histological analysis.
Motor coordination and strength are assessed using the rotarod. The rotarod consists of a plastic rotating rod of 3.6 cm axial diameter partitioned by metal disks into five sections to allow the testing of multiple mice simultaneously. Mice are trained on two sessions where the rotation speed is ramped from 0-30 rpm over 5 min and one training session where rotation is a constant 16 rpm for 5 min. Within two days of training, animals are formally assessed on the rotarod rotating at 16 rpm for a maximum of 3 min: the time to fall on this single test is the recorded data point.
The pole is a 700 mm long, 5 mm diameter, wooden rod. The rod is supported at its base and held vertical. The total walking distance for the mice is 550 mm. The time taken for the mouse to descend the pole is measured with a maximum time of 120 s. If a mouse falls, the time is scored as 120 s.

[4] = test drug 30 mg/kg daily by oral gavage, several experiments

| SMILES | pIC50 [1] | Mouse Plasma Conc. (Mouse Plasma Conc.) [ng/mL] | Metal transport [2] | Fe-DA % cf. Fe 0.4 μM/DA 50 μM (Fe-DA) [%] | Cytotox (% viable at 1 uM) (M17) | Cytotox (% viable at 10 uM) (M17) | Cytotox (% viable at 1 uM) (Neuronal cortical cells) | Cytotox (% viable at 10 uM) (Neuronal cortical cells) | Behaviour Pole Test, % (SSV = 0%) ([3]; 30 mg/kg) [%] | Behaviour Pole Test, value ± SD ([3]; 30 mg/kg) | SN cell counts % of SSV [3, 4] [%] | SN cell counts (cells +/− SD) [3, 4] |
| --- | --- | --- | --- | --- | --- | --- | --- | --- | --- | --- | --- | --- |
| CCN(CC)Cc1nc2c(O)c(Cl)cc(Cl)c2c(=O)n1C [Compound F4473] | 6.22 | ≤ 1356.2 | Metal transport 9% | 62 | – | – | 97.0% and 99.0% | 91.6% and 106.1% | – | – | – | – |
| O=c1c2c(Cl)cc(Cl)c(O)c2nc(CN2CCOCC2)n1CC1CC1 [Compound F4384] | – | – | Metal transport 17% | – | 116.3% and 106.4% | 86.5% and 73.0% | – | – | – | – | – | – |
| CCn1c(CN2CCCCC2)nc2c(O)c(Cl)cc(Cl)c2c1=O [Compound F4483] | 6.48 | ≤ 1585.2 | Metal transport 22% | 62 | – | – | 93.4% and 105.5% | 99.7% and 72.3% | – | – | – | – |
| CN(Cc1nc2c(O)c(Cl)cc(Cl)c2c(=O)n1CC1CC1)C1CCCCC1 [Compound F4536] | 6.00 | – | Metal transport 24% | 81 | – | – | 92.7% and 105.1% and 109.8% | – | – | – | – | – |
| CCN1CCN(Cc2nc3c(O)c(Cl)cc(Cl)c3c(=O)n2CC2CC2)CC1 [Compound F4383] | 5.82 | – | Metal transport 8% | 81 | 118.5% and 102.3% | 103.4% and 92.7% | – | – | – | – | – | – |
| CCCNCc1nc2c(O)c(Cl)cc(Cl)c2c(=O)n1CCC [Compound F4542] | 6.44 | – | Metal transport 30% | 47 | – | – | 105.8% and 102.9% and 94.3% | – | – | – | – | – |
| CCCN(CCC)Cc1nc2c(O)c(Cl)cc(Cl)c2c(=O)n1CC [Compound F4550] | 6.12 | – | Metal transport 35% | 128 | – | – | 88.7% and 94.7% | 71.7% and 83.5% | – | – | – | – |
| CCCNCc1nc2c(O)c(Cl)cc(Cl)c2c(=O)n1CC [Compound F4549] | 6.52 | – | Metal transport 22% | 40 | – | – | 98.5% and 99.7% | 44.6% and 52.1% | – | – | – | – |
| CCCn1c(CNC)nc2c(O)c(Cl)cc(Cl)c2c1=O [Compound F4095, 5,7-Dichloro-8-hydroxy-2-((methylamino)methyl)-3-propylquinazolin-4(3H)-one] | – | – | – | – | – | – | – | – | 24.25 | (2.21 ± 0.89) | 12.15 | (2436.00 ± 603.06) cells |
| CCCN(CCC)Cc1nc2c(O)c(Cl)cc(Cl)c2c(=O)n1C [Compound F4551] | 6.35 | – | Metal transport 30% | 56 | – | – | 89.7% and 96.9% | 50.7% and 62.5% | – | – | – | – |

More lines, main results first:

| pIC50 [1] | Mouse Plasma Conc. (Mouse Plasma Conc.) [ng/mL] | SMILES | Metal transport [2] | Fe-DA % cf. Fe 0.4 μM/DA 50 μM (Fe-DA) [%] | Cytotox (% viable at 1 uM) (M17) | Cytotox (% viable at 10 uM) (M17) | Cytotox (% viable at 1 uM) (Neuronal cortical cells) | Cytotox (% viable at 10 uM) (Neuronal cortical cells) | Behaviour Pole Test, % (SSV = 0%) ([3]; 30 mg/kg) [%] | Behaviour Pole Test, value ± SD ([3]; 30 mg/kg) | SN cell counts % of SSV [3, 4] [%] | SN cell counts (cells +/− SD) [3, 4] |
| --- | --- | --- | --- | --- | --- | --- | --- | --- | --- | --- | --- | --- |
| 6.48 | ≤ 3294.1 | CCN(CC)Cc1nc2c(O)c(Cl)cc(Cl)c2c(=O)n1CC [Compound F4386] | Metal transport 13% | 77 | 101.8% and 99.8% and 101.4% and 107.9% | 105.2% and 91.9% and 111.7% and 106.8% | – | – | – | – | – | – |
| 6.77 | – | CC(C)Cn1c(CN(C)C)nc2c(O)c(Cl)cc(Cl)c2c1=O.Cl [Compound F4271, 5,7-Dichloro-2-((dimethylamino)methyl)-8-hydroxy-3-isobutylquinazolin-4(3H)-one] | Metal transport 27.8% | 57 | 104.4% and 102.3% | 61.5% and 52.5% | – | – | – | – | – | – |
| 6.37 | – | CCNCc1nc2c(O)c(Cl)cc(Cl)c2c(=O)n1CC(C)C [Compound F4545] | Metal transport 40% | 148 | – | – | 86.4% and 85.0% | 36.2% and 28.0% | – | – | – | – |
| 6.30 | – | CCCNCc1nc2c(O)c(Cl)cc(Cl)c2c(=O)n1CC(C)C [Compound F4547] | Metal transport 54% | 34 | – | – | 75.0% and 83.9% | 25.2% and 26.0% | – | – | – | – |
| 6.54 | – | CCCn1c(CN(C)C)nc2c(O)c(Cl)cc(Cl)c2c1=O [Compound F4530] | Metal transport 24% | 57 | – | – | 105.0% and 96.2% | 57.6% and 41.4% | – | – | – | – |

Reference: patent US9145375B2, “Quinazolinone compounds” (PRANA BIOTECHNOLOGY LIMITED, priority 2008, dated 2015)
